Test results from patent US5294611A, “Angiotensin II receptor blocking 2,3,6 substituted quinazolinones” (American Cyanamid Company, priority 1993, dated 1994).
Where two headings read alike, the source gives them in different places.

Tested on: Angiotensin II (AII) vasopressor response
Experiment: AII Challenge: antagonism of angiotensin II vasopressor response in conscious spontaneously hypertensive rats
Type: in vivo, rat (male okamoto-Aoki SHR)
Conditions: for inhibition in vivo at 1 mg/kg / inhibition in vivo at 3 mg/kg / inhibition in vivo at 5 mg/kg: Rattus norvegicus; for inhibition in vivo at 1 mg/kg / inhibition in vivo at 3 mg/kg: iv; for inhibition in vivo at 1 mg/kg / inhibition in vivo at 3 mg/kg / inhibition in vivo at 5 mg/kg / Average Change: SHR n=2; for inhibition in vivo at 3 mg/kg / inhibition in vivo at 5 mg/kg: read-out: Inhibition; for inhibition in vivo at 5 mg/kg: po
Method in brief: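 Conscious male SHR (16–20 weeks, ~330 g) cannulated under local procaine, blood pressure recorded via transducer. Angiotensin II (human) 0.05 and 0.1 ug/kg i.v. given before and after test compound dosed i.v., i.p. or orally; response measured as rise in systolic pressure (mmHg).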

`CCCCc1nc2ccc([C@H]3[C@@H]4CCC[C@@H]4ON3C)cc2c(=O)n1Cc1ccc(-c2ccccc2-c2nnn[nH]2)cc1` (relative stereo) [Example 50] showed an inhibition in vivo at 1 mg/kg (0.5 h, 1 mg/kg I.V., AII 0.05 mcg/kg IV, 30 min post dose) of 17%, an inhibition in vivo at 1 mg/kg (0.5 h, 1 mg/kg I.V., AII 0.1 mcg/kg IV, 30 min post dose) of 39% and an inhibition in vivo at 3 mg/kg (0.5 h, 3 mg/kg I.V., AII 0.05 mcg/kg IV, 30 min post dose) of 64%. For the same molecule, the inhibition in vivo at 3 mg/kg (0.5 h, 3 mg/kg I.V., AII 0.1 mcg/kg IV, 30 min post dose) was 66%, the inhibition in vivo at 1 mg/kg (1 h, 1 mg/kg I.V., AII 0.05 mcg/kg IV, 60 min post dose) was 17% and the inhibition in vivo at 1 mg/kg (1 h, 1 mg/kg I.V., AII 0.1 mcg/kg IV, 60 min post dose) was 27%. It also gave an inhibition in vivo at 3 mg/kg (1 h, 3 mg/kg I.V., AII 0.05 mcg/kg IV, 60 min post dose) of 70%, an inhibition in vivo at 3 mg/kg (1 h, 3 mg/kg I.V., AII 0.1 mcg/kg IV, 60 min post dose) of 65% and an inhibition in vivo at 1 mg/kg (2 h, 1 mg/kg I.V., AII 0.05 mcg/kg IV, 120 min post dose) of 17%. It also gave an inhibition in vivo at 1 mg/kg (2 h, 1 mg/kg I.V., AII 0.1 mcg/kg IV, 120 min post dose) of 35%, an inhibition in vivo at 3 mg/kg (2 h, 3 mg/kg I.V., AII 0.05 mcg/kg IV, 120 min post dose) of 66% and an inhibition in vivo at 3 mg/kg (2 h, 3 mg/kg I.V., AII 0.1 mcg/kg IV, 120 min post dose) of 75%. For the same molecule, the inhibition in vivo at 1 mg/kg (3 h, 1 mg/kg I.V., AII 0.05 mcg/kg IV, 180 min post dose) was 25%, the inhibition in vivo at 1 mg/kg (3 h, 1 mg/kg I.V., AII 0.1 mcg/kg IV, 180 min post dose) was 33% and the inhibition in vivo at 3 mg/kg (3 h, 3 mg/kg I.V., AII 0.05 mcg/kg IV, 180 min post dose) was 59%. The inhibition in vivo at 3 mg/kg (3 h, 3 mg/kg I.V., AII 0.1 mcg/kg IV, 180 min post dose) was 68%, the inhibition in vivo at 1 mg/kg (4 h, 1 mg/kg I.V., AII 0.05 mcg/kg IV, 240 min post dose) was -8% and the inhibition in vivo at 1 mg/kg (4 h, 1 mg/kg I.V., AII 0.1 mcg/kg IV, 240 min post dose) was -16%. The inhibition in vivo at 1 mg/kg (5 h, 1 mg/kg I.V., AII 0.05 mcg/kg IV, 300 min post dose) was -25%, the inhibition in vivo at 1 mg/kg (5 h, 1 mg/kg I.V., AII 0.1 mcg/kg IV, 300 min post dose) was -11% and the inhibition in vivo at 1 mg/kg (16.5 h, 1 mg/kg I.V., AII 0.05 mcg/kg IV, 990 min post dose (so in the source)) was 20%. The inhibition in vivo at 1 mg/kg (16.5 h, 1 mg/kg I.V., AII 0.1 mcg/kg IV, 990 min post dose (so in the source)) was 9%, the inhibition in vivo at 3 mg/kg ([…], 3 mg/kg I.V., AII 0.05 mcg/kg IV, 90 min post dose) was 80% and the inhibition in vivo at 3 mg/kg ([…], 3 mg/kg I.V., AII 0.1 mcg/kg IV, 90 min post dose) was 52%. It also gave an inhibition in vivo at 5 mg/kg (0.5 h, 5 mg/kg P.O., AII 0.05 mcg/kg IV, 30 min post dose) of 47%, an inhibition in vivo at 5 mg/kg (0.5 h, 5 mg/kg P.O., AII 0.1 mcg/kg IV, 30 min post dose) of 25% and an inhibition in vivo at 5 mg/kg (1 h, 5 mg/kg P.O., AII 0.05 mcg/kg IV, 60 min post dose) of 47%. For the same molecule, the inhibition in vivo at 5 mg/kg (1 h, 5 mg/kg P.O., AII 0.1 mcg/kg IV, 60 min post dose) was 32%, the inhibition in vivo at 5 mg/kg (2 h, 5 mg/kg P.O., AII 0.05 mcg/kg IV, 120 min post dose) was 68% and the inhibition in vivo at 5 mg/kg (3 h, 5 mg/kg P.O., AII 0.05 mcg/kg IV, 180 min post dose) was 35%. The inhibition in vivo at 5 mg/kg (3 h, 5 mg/kg P.O., AII 0.1 mcg/kg IV, 180 min post dose) was 18%, the inhibition in vivo at 5 mg/kg ([…], 5 mg/kg P.O., AII 0.05 mcg/kg IV, 90 min post dose) was 53% and the inhibition in vivo at 5 mg/kg ([…], 5 mg/kg P.O., AII 0.1 mcg/kg IV, 90 min post dose) was 52%. For the same molecule, the “Average Change” value (1 mg/kg I.V., AII 0.05 mcg/kg IV, 30 min post dose) was 25 mmHg, the “Average Change” value (1 mg/kg I.V., AII 0.05 mcg/kg IV, 60 min post dose) was 25 mmHg and the “Average Change” value (1 mg/kg I.V., AII 0.05 mcg/kg IV, 120 min post dose) was 25 mmHg. For the same molecule, the “Average Change” value (1 mg/kg I.V., AII 0.05 mcg/kg IV, 180 min post dose) was 22.5 mmHg, the “Average Change” value (1 mg/kg I.V., AII 0.05 mcg/kg IV, 240 min post dose) was 32.5 mmHg and the “Average Change” value (1 mg/kg I.V., AII 0.05 mcg/kg IV, 300 min post dose) was 37.5 mmHg. For the same molecule, the “Average Change” value (1 mg/kg I.V., AII 0.05 mcg/kg IV, 990 min post dose (so in the source)) was 24 mmHg, the “Average Change” value (1 mg/kg I.V., AII 0.1 mcg/kg IV, 30 min post dose) was 25 mmHg and the “Average Change” value (1 mg/kg I.V., AII 0.1 mcg/kg IV, 60 min post dose) was 30 mmHg. The “Average Change” value (1 mg/kg I.V., AII 0.1 mcg/kg IV, 120 min post dose) was 26.5 mmHg, the “Average Change” value (1 mg/kg I.V., AII 0.1 mcg/kg IV, 180 min post dose) was 27.5 mmHg and the “Average Change” value (1 mg/kg I.V., AII 0.1 mcg/kg IV, 240 min post dose) was 47.5 mmHg. The “Average Change” value (1 mg/kg I.V., AII 0.1 mcg/kg IV, 300 min post dose) was 45.5 mmHg, the “Average Change” value (1 mg/kg I.V., AII 0.1 mcg/kg IV, 990 min post dose (so in the source)) was 37.5 mmHg and the “Average Change” value (3 mg/kg I.V., AII 0.05 mcg/kg IV, 30 min post dose) was 20 mmHg. For the same molecule, the “Average Change” value (3 mg/kg I.V., AII 0.05 mcg/kg IV, 60 min post dose) was 16.5 mmHg, the “Average Change” value (3 mg/kg I.V., AII 0.05 mcg/kg IV, 90 min post dose) was 11 mmHg and the “Average Change” value (3 mg/kg I.V., AII 0.05 mcg/kg IV, 120 min post dose) was 18.5 mmHg. The “Average Change” value (3 mg/kg I.V., AII 0.05 mcg/kg IV, 180 min post dose) was 22.5 mmHg, the “Average Change” value (3 mg/kg I.V., AII 0.1 mcg/kg IV, 30 min post dose) was 18.5 mmHg and the “Average Change” value (3 mg/kg I.V., AII 0.1 mcg/kg IV, 60 min post dose) was 19 mmHg. For the same molecule, the “Average Change” value (3 mg/kg I.V., AII 0.1 mcg/kg IV, 90 min post dose) was 26.5 mmHg, the “Average Change” value (3 mg/kg I.V., AII 0.1 mcg/kg IV, 120 min post dose) was 14 mmHg and the “Average Change” value (3 mg/kg I.V., AII 0.1 mcg/kg IV, 180 min post dose) was 17.5 mmHg. For the same molecule, the “Average Change” value (5 mg/kg P.O., AII 0.05 mcg/kg IV, 30 min post dose) was 22.5 mmHg, the “Average Change” value (5 mg/kg P.O., AII 0.05 mcg/kg IV, 60 min post dose) was 22.5 mmHg and the “Average Change” value (5 mg/kg P.O., AII 0.05 mcg/kg IV, 90 min post dose) was 20 mmHg. The “Average Change” value (5 mg/kg P.O., AII 0.05 mcg/kg IV, 120 min post dose) was 13.5 mmHg, the “Average Change” value (5 mg/kg P.O., AII 0.05 mcg/kg IV, 180 min post dose) was 27.5 mmHg and the “Average Change” value (5 mg/kg P.O., AII 0.1 mcg/kg IV, 30 min post dose) was 32 mmHg. For the same molecule, the “Average Change” value (5 mg/kg P.O., AII 0.1 mcg/kg IV, 60 min post dose) was 29 mmHg, the “Average Change” value (5 mg/kg P.O., AII 0.1 mcg/kg IV, 90 min post dose) was 20.5 mmHg and the “Average Change” value (5 mg/kg P.O., AII 0.1 mcg/kg IV, 120 min post dose) was 22.5 mmHg. For the same molecule, the “Average Change” value (5 mg/kg P.O., AII 0.1 mcg/kg IV, 180 min post dose) was 35 mmHg and the Change (single SHR, 5 mg/kg P.O., AII 0.1 mcg/kg IV, 180 min post dose) was 35 mmHg.
